Values of other authors in patent publication US20090233840A1, “Modified Dynorphin Expression in Animals and Identification of Compounds for Treatment of Obesity and Diabetes” (priority 2004, published 2009).

Tests used:
[1] = administered ICV
[2] = intracerebroventricularly
[3] = test system: cultured cortical cells from Sprague Dawley rats; details: comparable to that induced by NMDA; resistant to naloxone
[4] = not affected by naloxone or norBNI

For “dynorphin A (YGGFLRRIRPKLKWDNQ; Dynorphin A(1-17); UniProt P01213 207-223, looked up) [[Leu]-enkephalin-containing opioid peptide encoded by the preprodynorphin gene]”, the analgesic efficacy [1] is listed as “ineffective” and the analgesic effect [2] is listed as “moderate analgesic effect”.
In the case of dynorphin A (2-17), the intracellular calcium concentration [3] is given as “increase in intracellular calcium concentration”.
In the case of “Dyn A(1-13) (YGGFLRRIRPKLK; Dynorphin A(1-13); UniProt P01213 207-219, looked up, fragment)”, the “potency in writhing assay” value [4] is listed as “very potent”.
